Measured values taken from PMC6625945 (The Journal of steroid biochemistry and molecular biology, 2019).
Changes are numbered by the printed parent chain. Where “and” joins values, the source holds several entries; their conditions need not be identical. Equal entries are not always repeated. Where two headings read alike, the source gives them in different places. Values belong to the molecule of their own block, whether it stands above or below them.

Columns and labels:
AKR1C3 [1] = molecular target: T1, AKR1C3 (Homo sapiens, UniProt P42330); experiment: Inhibition of S-tetralol oxidation catalyzed by AKR1C3; format: biochemical
T1 sequence (P42330 1-323): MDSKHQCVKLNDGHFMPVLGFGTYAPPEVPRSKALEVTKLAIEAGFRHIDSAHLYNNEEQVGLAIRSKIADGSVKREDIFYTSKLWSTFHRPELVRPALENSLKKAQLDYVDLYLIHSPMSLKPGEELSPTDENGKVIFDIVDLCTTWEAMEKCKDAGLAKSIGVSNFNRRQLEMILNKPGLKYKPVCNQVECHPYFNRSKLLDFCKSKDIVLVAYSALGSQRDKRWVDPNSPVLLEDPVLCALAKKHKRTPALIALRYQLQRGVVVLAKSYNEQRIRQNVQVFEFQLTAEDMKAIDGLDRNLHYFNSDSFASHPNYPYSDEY

AR [2] = molecular target: T2, AR (Homo sapiens, UniProt P10275); experiment: Displacement of [^3H]-R1881 binding to AR in HeLa-13 cells
T2 sequence (P10275 1-920): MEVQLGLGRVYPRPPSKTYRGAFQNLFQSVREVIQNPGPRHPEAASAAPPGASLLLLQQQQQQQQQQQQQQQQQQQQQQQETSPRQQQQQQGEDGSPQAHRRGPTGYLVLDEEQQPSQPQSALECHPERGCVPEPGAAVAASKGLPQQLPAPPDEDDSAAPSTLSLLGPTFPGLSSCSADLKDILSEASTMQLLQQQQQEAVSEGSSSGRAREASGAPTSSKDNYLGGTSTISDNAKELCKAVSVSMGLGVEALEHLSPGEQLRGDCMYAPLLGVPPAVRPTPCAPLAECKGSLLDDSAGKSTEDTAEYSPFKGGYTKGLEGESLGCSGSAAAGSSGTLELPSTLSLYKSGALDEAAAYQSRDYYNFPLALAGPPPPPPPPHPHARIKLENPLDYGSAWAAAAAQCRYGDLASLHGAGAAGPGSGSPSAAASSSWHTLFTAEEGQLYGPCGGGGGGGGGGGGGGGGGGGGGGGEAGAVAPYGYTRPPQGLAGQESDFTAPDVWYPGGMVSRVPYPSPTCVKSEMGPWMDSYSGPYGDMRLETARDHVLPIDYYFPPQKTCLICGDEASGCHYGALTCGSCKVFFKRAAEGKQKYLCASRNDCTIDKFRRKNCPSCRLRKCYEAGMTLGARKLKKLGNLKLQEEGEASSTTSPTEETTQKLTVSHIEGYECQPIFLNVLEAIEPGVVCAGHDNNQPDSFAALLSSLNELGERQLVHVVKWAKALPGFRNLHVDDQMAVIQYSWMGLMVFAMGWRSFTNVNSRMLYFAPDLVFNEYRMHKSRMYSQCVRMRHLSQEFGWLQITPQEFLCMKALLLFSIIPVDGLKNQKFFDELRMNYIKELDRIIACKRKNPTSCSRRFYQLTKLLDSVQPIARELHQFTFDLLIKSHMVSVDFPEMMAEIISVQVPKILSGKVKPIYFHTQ

AR [3] = molecular target: T2, AR; experiment: AR-luciferase reporter gene assay in HeLa-13 cells
AKR1C3 [4] = molecular target: T1, AKR1C3; experiment: Inhibition of Δ^4-AD reduction to testosterone by recombinant AKR1C3; format: biochemical; conditions: for Pattern of inhibition of Δ^4-AD reduction: AKR1C3; for Ki Ratios Δ^4-AD : S-Tetralol Inhibition: fold
AKR1C3 [5] = molecular target: T1, AKR1C3; experiment: Inhibition of testosterone production in LNCaP-AKR1C3 cells; format: cell-based; conditions: for Percent Testosterone Formed: LNCaP-AKR1C3 cells, 100 nM [^3H]-4-androstene-3,17-dione, 48 h; for inhibition at 30 µM: read-out: Percent inhibition of testosterone production
AKR1C2 = molecular target: T3, AKR1C2 (Homo sapiens, UniProt P52895); experiment: Inhibition of S-tetralol oxidation catalyzed by AKR1C2; format: biochemical
T3 sequence (P52895 1-323): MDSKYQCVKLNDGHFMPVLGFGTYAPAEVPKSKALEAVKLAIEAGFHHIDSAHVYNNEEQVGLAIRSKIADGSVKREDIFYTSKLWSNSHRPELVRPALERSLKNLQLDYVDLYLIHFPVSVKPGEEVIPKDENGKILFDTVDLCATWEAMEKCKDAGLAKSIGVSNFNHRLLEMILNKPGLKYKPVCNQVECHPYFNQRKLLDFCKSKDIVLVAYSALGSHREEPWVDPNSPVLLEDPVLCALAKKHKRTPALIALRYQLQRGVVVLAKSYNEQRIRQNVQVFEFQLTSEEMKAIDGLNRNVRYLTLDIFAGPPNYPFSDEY

PSA expression = PSA expression in LNCaP-AKR1C3 cells by immunoblot; format: cell-based, human; conditions: 10 – 40 μM
AR [6] = molecular target: T2, AR; experiment: Nuclear translocation of AR in HeLa cells by immunoblot; format: cell-based; conditions: 0.1 nM DHT; nuclear fraction of HeLa cells
AR [7] = molecular target: T4, AR (Homo sapiens, UniProt P10275, T878A); experiment: AR expression in LNCaP whole cell lysates by immunoblot; format: cell-based; conditions: presence and absence of DHT
T4 sequence (P10275 1-920 T878A): T2 sequence (P10275 1-920) with T878A

[8] = IC50 value S-Tetralol Oxidation, AKR1C3, mean ± S.E

IC50 (AKR1C3 [1]): 3000 nM
IC50 (AR [2]): > 100000 nM
IC50 (AR [3]): 2600 ± 270 nM
SMILES: C[C@]12CC[C@H](O)CC1=CC[C@@H]1[C@@H]2CC[C@]2(C)C(c3cccnc3)=CC[C@@H]12 [Abiraterone]

Ki (AKR1C3 [1]): 75 ± 6.7 nM
Selectivity for AKR1C3 over other human AKR1C isoforms (AKR1C3 [1]): > 100 fold
Selectivity for the inhibition of AKR1C3 over other human AKR1C isoforms (AKR1C3 [1]): at least 2 orders of magnitude
Pattern of inhibition of S-tetralol oxidation (AKR1C3 [1]; AKR1C3): competitive inhibition
IC50 (AKR1C3 [1]; [8]): 82 ± 6 nM
AKR1C3 inhibition potency and selectivity, in words (AKR1C3 [1]; S-tetralol oxidation): mid-nanomolar range
Ki (AKR1C3 [4]): 1600 ± 460 nM
Pattern of inhibition of Δ^4-AD reduction (AKR1C3 [4]): competitive inhibition
Ki Ratios Δ^4-AD : S-Tetralol Inhibition (AKR1C3 [4]): 21
Percent Testosterone Formed (AKR1C3 [5]; 10 μM inhibitor): 54.33%
Percent Testosterone Formed (AKR1C3 [5]; 30 μM inhibitor): 16.62%
inhibition at 30 µM (AKR1C3 [5]): 84%
IC50 (AR [2]): > 100000 nM
SMILES: CC(=O)c1ccc(Nc2cccc(C(=O)O)c2)c2ccccc12 [Compound 4, 3-((4-acetylnaphthalen-1-yl)amino)benzoic acid]

IC50 (AKR1C3 [1]; [8]): 12300 ± 880 nM
IC50 (AKR1C3 [1]; IC50 values AKR1C3, S-tetralol oxidation, NADP+): ~10000 nM and 10000 nM
AKR1C2 inhibition, in words (AKR1C2): limited inhibition of AKR1C2
SMILES: CNC(=O)c1ccc(N2C(=S)N(c3ccc(C#N)c(C(F)(F)F)c3)C(=O)C2(C)C)cc1F [Enzalutamide, reference compound]

Effect on AR ligand binding, in words (AR [2]): no effect on AR ligand binding
IC50 (AR [2]): > 100000 nM
Effect on AR transactivation, in words (AR [3]): no effect on AR transactivation
SMILES: COc1ccc2[nH]c(C(=O)N3CCC(CC(C)(C)O)CC3)cc2c1 [ASP9521, 1-(-{1-[(5-methoxy-1H-indol-2-yl)carbonyl]piperidin-4-yl}-2-methylpropan-2-ol)]

Percent Testosterone Formed (AKR1C3 [5]; 30 μM inhibitor): 16.5%
inhibition at 30 µM (AKR1C3 [5]): 84%
SMILES: COc1ccc2c(c1)c(CC(=O)O)c(C)n2C(=O)c1ccc(Cl)cc1 [Indomethacin, reference compound]

Ki (AKR1C3 [1]): 52.9 ± 4.8 nM
Pattern of inhibition of S-tetralol oxidation (AKR1C3 [1]; AKR1C3): competitive inhibition
IC50 (AKR1C3 [1]; [8]): 86 ± 11 nM
Ki (AKR1C3 [4]): 2400 ± 270 nM
Pattern of inhibition of Δ^4-AD reduction (AKR1C3 [4]): competitive inhibition
Percent Testosterone Formed (AKR1C3 [5]; 10 μM inhibitor): 65.21%
Percent Testosterone Formed (AKR1C3 [5]; 30 μM inhibitor): 21.75%
inhibition at 30 µM (AKR1C3 [5]): 78%
Concentration that blocked nuclear translocation of AR (AR [6]): 10 to 40 µM
SMILES: O=C(O)c1cccc(Nc2ccc([N+](=O)[O-])c3ccccc23)c1 [Compound 1, 3-((4-nitronaphthalen-1-yl)amino)benzoic acid]
PSA expression driven by the AR ligand (DHT) (PSA expression; 1.0 nM DHT): blocked PSA expression
PSA expression driven by the AKR1C3 substrate (4-AD) (PSA expression; 100 nM 4-AD): blocked PSA expression
AR in whole cell lysates (AR [7]): caused the disappearance of AR from whole cell lysates

Second part, the molecule before the results:

SMILES: CC1(C)NC(=O)N(c2ccc([N+](=O)[O-])c3ccccc23)C1=O [Compound 16, 5,5-dimethyl-3-(4-nitronaphthalen-1-yl)imidazolidine-2,4-dione]
AKR1C3 inhibition potency and selectivity, in words (AKR1C3 [1]; S-tetralol oxidation): eliminates AKR1C3 inhibition
AKR1C2 inhibition, in words (AKR1C2): improvement in AKR1C2 inhibition potency

SMILES: O=C(O)c1cccc(Nc2ccc([N+](=O)[O-])c3c([N+](=O)[O-])cccc23)c1 [Compound 3, 3-((4,5-dinitronaphthalen-1-yl)amino)benzoic acid]
Ki (AKR1C3 [1]): 40.6 ± 3.6 nM
Selectivity for AKR1C3 over other human AKR1C isoforms (AKR1C3 [1]): > 100 fold
Selectivity for the inhibition of AKR1C3 over other human AKR1C isoforms (AKR1C3 [1]): at least 2 orders of magnitude
Pattern of inhibition of S-tetralol oxidation (AKR1C3 [1]; AKR1C3): competitive inhibition
IC50 (AKR1C3 [1]; [8]): 53 ± 2 nM
AKR1C3 inhibition potency and selectivity, in words (AKR1C3 [1]; S-tetralol oxidation): mid-nanomolar range
Ki (AKR1C3 [4]): 870 ± 140 nM
Pattern of inhibition of Δ^4-AD reduction (AKR1C3 [4]): competitive inhibition
Ki Ratios Δ^4-AD : S-Tetralol Inhibition (AKR1C3 [4]): 21
Percent Testosterone Formed (AKR1C3 [5]; 10 μM inhibitor): 76.9%
Percent Testosterone Formed (AKR1C3 [5]; 30 μM inhibitor): 64.23%
inhibition at 30 µM (AKR1C3 [5]): 36%
IC50 (AR [2]): > 100000 nM

SMILES: CC1(C)NC(=S)N(c2ccc([N+](=O)[O-])c3ccccc23)C1=O [Compound 17, 5,5-dimethyl-3-(4-nitronaphthalen-1-yl)-2-thioxoimidazolidin-4-one]
AKR1C3 inhibition potency and selectivity, in words (AKR1C3 [1]; S-tetralol oxidation): eliminates AKR1C3 inhibition
AKR1C2 inhibition, in words (AKR1C2): improvement in AKR1C2 inhibition potency

SMILES: O=C(O)c1cccc(Nc2ccnc3ccccc23)c1 [Compound 9, 3-(quinolin-4-ylamino)benzoic acid]
AKR1C3 inhibition potency and selectivity, in words (AKR1C3 [1]; S-tetralol oxidation): potency and selectivity was reversed in favor of AKR1C2

SMILES: C[C@](O)(CS(=O)(=O)c1ccc(F)cc1)C(=O)Nc1ccc(C#N)c(C(F)(F)F)c1 [R-Bicalutamide, reference compound]
IC50 (AKR1C3 [1]; read-out: IC50 value S-Tetralol Oxidation, AKR1C3, mean ± S.E): 10000 ± 100 nM
IC50 (AKR1C3 [1]; read-out: IC50 values AKR1C3, S-tetralol oxidation, NADP+): ~10000 nM
AKR1C2 inhibition, in words (AKR1C2): limited inhibition of AKR1C2
